Where a SMILES comes first, the peptide text is derived from it.
What was measured:
[1] = test system: splenocytes of ML1419c p113-121 immunized HLA-A2tg mice; assay type: cell-based
HLA-A*0201 = HLA-A*0201 (Homo sapiens, UniProt P04439, D140Y/D185E/D98H/E176V/E277Q/G131W/G231S/I119V/I121R/I166T/I218V/L300P/L318F/N151K/N90K/P208A/P217A/Q86G/Q94H/R138H/R169H/T345S); assay: HLA-A*0201-peptide binding

For concanavalin A [conA], the IFN-γ [1] was 5112 pg/mL, the IL-6 [1] was 299 pg/mL and the IP-10 [1] was 251 pg/mL. For the same compound, the MIG [1] was 533 pg/mL, the MIP-β [1] was 787 pg/mL and the TNF-α [1] was 33 pg/mL. It also gave a VEGF [1] of 83 pg/mL.
In the case of CC(C)C[C@H](NC(=O)[C@@H](NC(=O)[C@@H](NC(=O)CNC(=O)[C@H](CC(=O)O)NC(=O)[C@H](CC(C)C)NC(=O)[C@@H](N)CCCNC(=N)N)[C@@H](C)O)[C@@H](C)O)C(=O)N[C@@H](CCC(=O)O)C(=O)N[C@H](C(=O)O)C(C)C [ML1419c p113-121, RLDGTTLEV] (H-RLDGTTLEV-OH), the IC50 (HLA-A*0201) is reported as 35 nM.

— PMC3140574 (Journal of immunology (Baltimore, Md. : 1950), 2011)
